Reference: PubChem BioAssay (NCI)
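Compound exposure: 48 hours, 5 concentrations, 96-well plates. At the GI50, growth is halved. Definition used: TGI = concentration required for complete inhibition of growth.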

Legend:
Experiment in all cases: NCI-60 cell line screen, 48 h
HCT-116 colon = tested on: HCT-116 colon
BT-549 breast = tested on: BT-549 breast
SNB-19 CNS = tested on: SNB-19 CNS
IGROV1 ovarian = tested on: IGROV1 ovarian
HCT-15 colon = tested on: HCT-15 colon
SNB-75 CNS = tested on: SNB-75 CNS
MDA-MB-435 = tested on: MDA-MB-435
TK-10 renal = tested on: TK-10 renal
NCI-H460 lung = tested on: NCI-H460 lung
EKVX NSCLC = tested on: EKVX NSCLC
UACC-62 melanoma = tested on: UACC-62 melanoma
K-562 leukemia = tested on: K-562 leukemia
SK-MEL-5 melanoma = tested on: SK-MEL-5 melanoma
A549 NSCLC = tested on: A549 NSCLC
KM12 colon = tested on: KM12 colon
NCI-H23 lung = tested on: NCI-H23 lung
MCF7 breast = tested on: MCF7 breast
NCI/ADR-RES ovarian = tested on: NCI/ADR-RES ovarian
SF-539 CNS = tested on: SF-539 CNS
SK-MEL-2 melanoma = tested on: SK-MEL-2 melanoma
LOX IMVI melanoma = tested on: LOX IMVI melanoma
MALME-3M melanoma = tested on: MALME-3M melanoma
HOP-92 NSCLC = tested on: HOP-92 NSCLC
M14 melanoma = tested on: M14 melanoma
RPMI-8226 leukemia = tested on: RPMI-8226 leukemia
SK-OV-3 ovarian = tested on: SK-OV-3 ovarian
786-0 renal = tested on: 786-0 renal
OVCAR-8 ovarian = tested on: OVCAR-8 ovarian
HT29 colon = tested on: HT29 colon
OVCAR-5 ovarian = tested on: OVCAR-5 ovarian
COLO 205 colon = tested on: COLO 205 colon
SR leukemia = tested on: SR leukemia
HOP-62 NSCLC = tested on: HOP-62 NSCLC
PC-3 prostate = tested on: PC-3 prostate
U251 CNS = tested on: U251 CNS
SF-268 CNS = tested on: SF-268 CNS
MDA-MB-231 breast = tested on: MDA-MB-231 breast
SK-MEL-28 melanoma = tested on: SK-MEL-28 melanoma
SF-295 CNS = tested on: SF-295 CNS
HL-60(TB) leukemia = tested on: HL-60(TB) leukemia
ACHN renal = tested on: ACHN renal
CCRF-CEM leukemia = tested on: CCRF-CEM leukemia
MDA-MB-468 breast = tested on: MDA-MB-468 breast
OVCAR-4 ovarian = tested on: OVCAR-4 ovarian
NCI-H522 lung = tested on: NCI-H522 lung
DU-145 prostate = tested on: DU-145 prostate
SW-620 colon = tested on: SW-620 colon
RXF 393 renal = tested on: RXF 393 renal
A498 renal = tested on: A498 renal
OVCAR-3 ovarian = tested on: OVCAR-3 ovarian
UACC-257 melanoma = tested on: UACC-257 melanoma
MOLT-4 leukemia = tested on: MOLT-4 leukemia
T-47D breast = tested on: T-47D breast
HCC-2998 colon = tested on: HCC-2998 colon
NCI-H226 lung = tested on: NCI-H226 lung
SN12C renal = tested on: SN12C renal
UO-31 renal = tested on: UO-31 renal
CAKI-1 renal = tested on: CAKI-1 renal
HS 578T breast = tested on: HS 578T breast

CCN(CC)CCOc1ccc(C(=C(C)c2ccccc2)c2ccc(OCCN(CC)CC)cc2)cc1
GI50 (HCT-116 colon): 2.39 µM | TGI (HCT-116 colon): 7.09 µM | GI50 (BT-549 breast): 4.46 µM | TGI (BT-549 breast): 8.15 µM | GI50 (SNB-19 CNS): 4.29 µM | TGI (SNB-19 CNS): 8.7 µM | GI50 (IGROV1 ovarian): 4.27 µM | TGI (IGROV1 ovarian): 9.79 µM | GI50 (HCT-15 colon): 2.6 µM | TGI (HCT-15 colon): 6.85 µM | GI50 (SNB-75 CNS): 3.07 µM | TGI (SNB-75 CNS): 6.98 µM | GI50 (MDA-MB-435): 3.02 µM | TGI (MDA-MB-435): 6.48 µM | GI50 (TK-10 renal): 3.17 µM | TGI (TK-10 renal): 6.66 µM | GI50 (NCI-H460 lung): 3.57 µM | TGI (NCI-H460 lung): 6.96 µM | GI50 (EKVX NSCLC): 5.71 µM | TGI (EKVX NSCLC): > 23 µM | GI50 (UACC-62 melanoma): 3.89 µM | TGI (UACC-62 melanoma): 7.12 µM | GI50 (K-562 leukemia): 0.968 µM | TGI (K-562 leukemia): > 23 µM | GI50 (SK-MEL-5 melanoma): 3.57 µM | TGI (SK-MEL-5 melanoma): 6.78 µM | GI50 (A549 NSCLC): 4.54 µM | TGI (A549 NSCLC): 13.3 µM | GI50 (KM12 colon): 3.47 µM | TGI (KM12 colon): 7.22 µM | GI50 (NCI-H23 lung): 4.27 µM | TGI (NCI-H23 lung): 10.7 µM | GI50 (MCF7 breast): 0.75 µM | TGI (MCF7 breast): 4.18 µM | GI50 (NCI/ADR-RES ovarian): 4.71 µM | TGI (NCI/ADR-RES ovarian): 13.9 µM | GI50 (SF-539 CNS): 3.35 µM | TGI (SF-539 CNS): 6.4 µM | GI50 (SK-MEL-2 melanoma): 4.13 µM | TGI (SK-MEL-2 melanoma): 7.85 µM | GI50 (LOX IMVI melanoma): 3.14 µM | TGI (LOX IMVI melanoma): 6.25 µM | GI50 (MALME-3M melanoma): 3.61 µM | TGI (MALME-3M melanoma): 6.73 µM | GI50 (HOP-92 NSCLC): 1.76 µM | TGI (HOP-92 NSCLC): 6.5 µM | GI50 (M14 melanoma): 3.34 µM | TGI (M14 melanoma): 7.71 µM | GI50 (RPMI-8226 leukemia): 3.51 µM | TGI (RPMI-8226 leukemia): 8.8 µM | GI50 (SK-OV-3 ovarian): 3.69 µM | TGI (SK-OV-3 ovarian): 7.16 µM | GI50 (786-0 renal): 2.98 µM | TGI (786-0 renal): 6.77 µM | GI50 (OVCAR-8 ovarian): 6.12 µM | TGI (OVCAR-8 ovarian): 18.1 µM | GI50 (HT29 colon): 1.17 µM | TGI (HT29 colon): 5.6 µM | GI50 (OVCAR-5 ovarian): 3.45 µM | TGI (OVCAR-5 ovarian): 7.76 µM | GI50 (COLO 205 colon): 3.36 µM | TGI (COLO 205 colon): 6.89 µM | GI50 (SR leukemia): 2.44 µM | TGI (SR leukemia): > 23 µM | GI50 (HOP-62 NSCLC): 3.54 µM | TGI (HOP-62 NSCLC): 7.31 µM | GI50 (PC-3 prostate): 3.59 µM | TGI (PC-3 prostate): 8.25 µM | GI50 (U251 CNS): 3.69 µM | TGI (U251 CNS): 7.44 µM | GI50 (SF-268 CNS): 3.47 µM | TGI (SF-268 CNS): 8.81 µM | GI50 (MDA-MB-231 breast): 3.04 µM | TGI (MDA-MB-231 breast): 6.14 µM | GI50 (SK-MEL-28 melanoma): 3.52 µM | TGI (SK-MEL-28 melanoma): 6.65 µM | GI50 (SF-295 CNS): 3.58 µM | TGI (SF-295 CNS): 7.26 µM | GI50 (HL-60(TB) leukemia): 4.36 µM | TGI (HL-60(TB) leukemia): 22.1 µM | GI50 (ACHN renal): 3.63 µM | TGI (ACHN renal): 6.97 µM | GI50 (CCRF-CEM leukemia): 2.37 µM | TGI (CCRF-CEM leukemia): 6.61 µM | GI50 (MDA-MB-468 breast): 1.84 µM | TGI (MDA-MB-468 breast): 5.04 µM | GI50 (OVCAR-4 ovarian): 4.56 µM | TGI (OVCAR-4 ovarian): 11.7 µM | GI50 (NCI-H522 lung): 3.63 µM | TGI (NCI-H522 lung): 7.85 µM | GI50 (DU-145 prostate): 6 µM | TGI (DU-145 prostate): > 23 µM | GI50 (SW-620 colon): 3.1 µM | TGI (SW-620 colon): 6.31 µM | GI50 (RXF 393 renal): 2.47 µM | TGI (RXF 393 renal): 6.46 µM | GI50 (A498 renal): 2.73 µM | TGI (A498 renal): 5.62 µM | GI50 (OVCAR-3 ovarian): 2.96 µM | TGI (OVCAR-3 ovarian): 7.11 µM | GI50 (UACC-257 melanoma): 4.25 µM | TGI (UACC-257 melanoma): 8.08 µM | GI50 (MOLT-4 leukemia): 4.71 µM | TGI (MOLT-4 leukemia): 14.8 µM | GI50 (T-47D breast): 2.66 µM | TGI (T-47D breast): 5.98 µM | GI50 (HCC-2998 colon): 2.91 µM | TGI (HCC-2998 colon): 6.14 µM | GI50 (NCI-H226 lung): 5.92 µM | TGI (NCI-H226 lung): > 23 µM | GI50 (SN12C renal): 3.52 µM | TGI (SN12C renal): 7.22 µM | GI50 (UO-31 renal): 2.99 µM | TGI (UO-31 renal): 5.97 µM | GI50 (CAKI-1 renal): 3.42 µM | TGI (CAKI-1 renal): 7.07 µM | GI50 (HS 578T breast): 4.08 µM | TGI (HS 578T breast): 10.2 µM
